US9540619B2, “MELK regulation for the treatment of breast cancer” (NOVARTIS AG, priority 2013, dated 2017)
Entries after “also recorded” stand apart in the source; their conditions may differ. Where a SMILES comes first, the peptide text is derived from it. The star is where a group is joined. Cbz = O=C(OCc1ccccc1)*; CH2F = FC*

How the values were obtained:
Format in all cases: cell-based, human
[1] = tested on: BBC cells including BT549, MDA-MB-468, MDA-MB-231, and MDA-MB-436; assay: Cell proliferation assay (crystal violet) upon doxycycline-induced shRNA; conditions: knockdown induced with doxycycline 100 ng/ml; crystal violet staining six days after initial treatment
Protocol: (§1) Typically, breast cancer cells were seeded in 12-well plates (1-2×10^4) in 1 ml medium. On the next day, wells were added with 110 μl medium without or with 1 μg/ml doxycycline (to reach a final concentration of 100 ng/ml), which was repeated every two days. Six days after the initial treatment, cells were fixed with formaldehyde, and stained with crystal violet (0.05%, weight/volume), a chromatin-binding cytochemical stain. The plates were washed extensively, and imaged with a flatbed scanner. For quantification of the staining, 1 ml 10% acetic acid was added to each well to extract the dye. The absorbance was measured at 590 nm with 750 nm as a reference.

[2] = tested on: luminal cell lines, MCF7 and T47D; assay: as above; conditions: knockdown induced with doxycycline 100 ng/ml
Protocol: as §1

[3] = tested on: FoxM1; assay: MELK abundance after FoxM1 inhibition (immunoblotting)
Protocol: Cells were lysed with RIPA buffer (25 mM Tris, pH 7.4, 150 mM NaCl, 1% Nonidet P-40, 0.5% sodium deoxycholate, and 0.1% sodium dodecyl sulfate) supplemented with protease inhibitors cocktail (Roche) and phosphatase inhibitors cocktail (Thermo Scientific). Cleared lysates were analyzed for protein concentration using BCA kit (Thermo Scientific). Equal amount of protein (10-20 μg) was resolved on 8% or 10% SDS-PAGE, and was subsequently transferred onto a nitrocellulose or polyvinylidene difluoride membrane (Amersham). The membrane was blocked with 5% non-fat milk and was then incubated with primary antibodies overnight at 4° C. After washing, the membrane was incubated with fluorophore-conjugated secondary antibodies for 1 h at room temperature. The membrane was then washed and scanned with an Odyssey Infrared scanner (Li-Cor Biosciences). Primary antibodies used in this study include anti MELK (Epitomics, #2916), anti-α-tubulin (Abcam), anti-cyclin B1 (Millipore), anti-Vinculin (Sigma), anti-FoxM1 (Santa Cruz), anti-β-tubulin, anti-phopho-Akt (S473), anti-phospho Akt (T308), anti-total Akt, anti-Flag, anti-cleaved PARP (Asp214), anti-cleaved Caspase 3, anti-AURKA, anti-AURKB, anti-p27 (all from Cell Signaling Technology). Secondary antibodies used were IRDye700-conjugated anti-rabbit IgG and IRDye800-conjugated anti-mouse IgG (Rockland).

[4] = tested on: FoxM1; assay: MELK transcription after FoxM1 inhibition (qRT-PCR); conditions: cells treated for 16 h; quantitative PCR
Protocol: Total RNA was extracted from cultured cells with RNeasy Mini kit (Qiagen), with the use of QIAshredder spin column for homogenization and an on-column DNase digestion. Two micrograms of the total RNA was reversely transcribed using a High Capacity RNA to-cDNA Kit (Applied Biosystems). cDNAs were analyzed quantitatively using Power SYBR Green PCR Master Mix (Applied Biosystems) on an ABI7300 Real-time PCR system. Cycling conditions were 95° C. for 15 min, 40 cycles of 15 s at 94° C., 30 s at 55° C. and 30 s at 72° C. Ct values were generated using the default analysis settings. ΔCT was defined as Ctgene of interest-Ctβactin. ΔΔCT was defined as ΔCttreated sample-Ctcontrol sample. Relative quantification (RQ) was calculated as 2^−ΔΔCT. Statistical analysis was performed by Student's test.

[5] = tested on: caspases; assay: MELK knockdown-induced cell death with pan-caspase inhibitor; conditions: MDA-MB-468 cells with shMELK, doxycycline 4 days, last two days with 40 μM zVad-fmk

GACTAAAGCTTCACTATAATG (expressed or natural sequence) [MELK sh-1805, ID; NO: 2]
growth of BBC cells upon induction of the shRNA [1]: strongly impaired the growth
growth of luminal cell lines upon induction of the shRNA [2]: protected from the induction of MELK silencing

GCCTGAAAGAAACTCCAATTA (expressed or natural sequence; the letters are possibly those of the target site) [shMELK2, ID; NO: 4]
growth of BBC cells upon induction of the shRNA [1]: strongly impaired the growth
growth of luminal cell lines upon induction of the shRNA [2]: protected from the induction of MELK silencing

GGTGTGATACAGCCTACATAA (expressed or natural sequence; the letters are possibly those of the target site) [shMELK1, ID; NO: 3]
growth of BBC cells upon induction of the shRNA [1]: strongly impaired the growth
growth of luminal cell lines upon induction of the shRNA [2]: protected from the induction of MELK silencing

C=C(NC(=O)C(=C)NC(=O)c1csc(C2=N[C@@H]3c4csc(n4)[C@H]4NC(=O)c5csc(n5)[C@H]([C@](C)(O)[C@@H](C)O)NC(=O)[C@H]5CSC(=N5)/C(=C/C)NC(=O)[C@H]([C@@H](C)O)NC(=O)c5csc(n5)[C@]3(CC2)NC(=O)[C@H](C)NC(=O)C(=C)NC(=O)[C@H](C)NC(=O)[C@H]([C@@H](C)CC)N[C@@H]2C=Cc3c([C@H](C)O)cc(nc3[C@H]2O)C(=O)O[C@@H]4C)n1)C(N)=O [thiostrepton]
abundance/expression of MELK protein ([3]; MDA-MB-231 cells, 10 μM thiostrepton vs vehicle (0.1% DMSO)): reduced the abundance of MELK; also recorded: downregulates the expression of MELK
transcription of MELK [4]: decreases the transcription of MELK

GAGAGCTGTTTGACTATATAA (expressed or natural sequence) [MELK sh-413, ID; NO: 1]
growth of BBC cells upon induction of the shRNA [1]: strongly impaired the growth
growth of luminal cell lines upon induction of the shRNA [2]: protected from the induction of MELK silencing

ggaccacuuucccuacuuu [siRNA (SEQ ID NO: 31)]
abundance/expression of MELK protein ([3]; siRNA transfection, lysates three days after transfection): reduced the abundance of MELK
abundance/expression of MELK protein ([3]; siRNA transfection, lysates three days after transfection, listed as siRNA targeting FoxM1): suppresses MELK expression

COC(=O)C[C@H](NC(=O)[C@H](C)NC(=O)[C@@H](NC(=O)OCc1ccccc1)C(C)C)C(=O)CF [zVad, zVad-fmk] (Cbz-Val-Ala-Asp(OMe)-CH2F)
MELK knockdown-induced cell death [5]: significantly reduced MELK knockdown-induced cell death
